Where two headings read alike, the source gives them in different places. No end group written: not given here.
Experiments:
factor VII/VIIa [1] = target: T1, factor VII/VIIa (Homo sapiens, UniProt P08709); assay: Inhibition of factor X activation on J82 cells by huTFh polypeptides; type: cell-based; settings: for Optical Density: O.D. at 405 nm of factor Xa chromogenic product, 50 ul polypeptide solution at 100 uM, PBS control 0.960, no factor VII 0.005, significant if about 0.500 or less
T1 construct: from tissue
T1 sequence (P08709 61-466): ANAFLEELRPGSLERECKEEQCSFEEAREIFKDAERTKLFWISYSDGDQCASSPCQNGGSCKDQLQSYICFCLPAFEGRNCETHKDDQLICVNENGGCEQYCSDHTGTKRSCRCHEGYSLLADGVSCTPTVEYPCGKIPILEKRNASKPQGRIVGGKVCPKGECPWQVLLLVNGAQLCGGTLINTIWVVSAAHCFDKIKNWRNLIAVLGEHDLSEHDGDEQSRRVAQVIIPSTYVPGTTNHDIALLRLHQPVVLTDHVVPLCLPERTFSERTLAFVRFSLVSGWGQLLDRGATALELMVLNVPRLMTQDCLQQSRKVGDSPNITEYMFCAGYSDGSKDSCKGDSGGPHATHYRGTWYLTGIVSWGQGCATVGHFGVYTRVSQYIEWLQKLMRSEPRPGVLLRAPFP
Procedure: Fifty microliters (ul) of a solution containing a huTF polypeptide analog at 100 uM […] in TBS was added to each well of a 96-well of a 96-well flat bottom polystyrene assay plate. Then to each well was admixed 25 ul of a solution containing factor VII/VIIa isolated as described in Example 3 at a concentration of 1 nm in TBS, further admixed with 25 ul of 20 mM calcium chloride in TBS and the resulting admixture is maintained at room temperature for 30 minutes.
Human bladder cell carcinoma J82 cells were obtained from the American Type Culture Collection (ATCC HTB 1; Rockville, Md.) and cultured as described by Fair et al., J. Biol. Chem., 262:11692-11698 (1987) which methods are incorporated herein by reference.
5×10^4 J82 cells are suspended into 50 ul of TBS and admixed to each well of the polystyrene assay plate after the above maintenance period. Immediately thereafter 25 ul of factor X, isolated as described by Fair et al., J. Biol. Chem., 262:11692-11698 (1987), at a concentration of 100 nM in TBS and 50 ul of Xa chromogenic substrate S-2222 (1 mg/ml in TBS) were admixed, and the resulting admixture was maintained for two minutes at room temperature to form a chromogenic reaction product containing solution.
The amount of chromogenic product formed was quantitated by measuring the amount of optical density (O.D.) at 405 nanometers (nm) using a V-max 96 well spectrophotometer (Molecular Devices, Mountain View, Calif.). Controls with PBS in place of polypeptide or with no factor VII added were also run to establish the maximum and minimum possible O.D. values.

factor VII/VIIa [2] = target: T1, factor VII/VIIa; assay: Inhibition of huTF-initiated coagulation by polypeptide analogs of huTFh; type: biochemical; settings: for inhibition of huTF-initiated coagulation, dose-response (FIG. 12): non-lipidated polypeptides, various concentrations
Procedure: The ability of the polypeptides of the present invention to inhibit huTF-initiated coagulation were assayed by first incubating the polypeptides in the presence of factor VII/VIIa and calcium ions, and then adding this mixture to factor VII/VIIa-deficient plasma and evaluating clotting times.
Human factor VII/VIIa was isolated as described in Example 3. Ten microliters of a solution of 200 ng of this isolated factor VII/VIIa per ml of HBS/BSA was added to a solution comprising 100 ul of HBS, 20 ul of 25 mM CaCl2, and with 100 ul of TBS/Triton containing synthetic polypeptide. Numerous admixtures were so prepared which contained varying concentrations of the polypeptide and were then maintained at 37 degrees C. for 15 minutes. Relipidated tissue factor prepared as described in Example 4 was diluted in HBS/BSA such that 10 ul would yield a coagulation time of approximately 45 seconds when tested in the coagulation assay described in Example 2. The above maintained admixture was further admixed with this 10 ul dilution of relipidated huTF, with 100 ul of 25 mM CaCl2, and with 100 ul of factor VII/VIIa-deficient plasma (George King Bio-Medical, Inc., Overland Park, Kans.) diluted 1 part plasma to 1.5 parts HBS. The clotting time was then determined and plotted as described in Example 2. A prolongation of clotting time was taken to indicate inhibition of coagulation by the synthetic polypeptide. Percent inhibition was calculated as described in Example 10. Polypeptides producing at least a 30% inhibition of coagulation were considered huTFh binding site polypeptide analogs, i.e., polypeptides p26-49, p146-167 and p161-189 as shown in section I of Table 4.
Lipidated synthetic peptides were prepared in the manner described in Example 4 for relipidation of isolated huTF except that synthetic polypeptide was substituted for isolated huTF. The ratio 52 to 1 of lipid to polypeptide (w/w) was routinely utilized. Lipidated polypeptides producing at least 30% inhibition of coagulation were considered huTFh binding site polypeptide analogs, when present in lipidated form, i.e., those polypeptides shown in section II of Table 4.
The results of this study are shown in FIG. 12 and indicate that p24-35 and p152-169 are capable of inhibiting 45% and 25% respectively, of the huTF-initiated coagulation when utilized at 10 uM concentrations. It should be noted that in this study background inhibitions such as for those peptides indicated by a closed circle in FIG. 12 were lower than the study shown in Table 4. As a result, polypeptides producing at least a 20% inhibition of coagulation at a concentration of 10 uM in this study were considered huTF binding site polypeptide analogs.

[3] = non-phospholipidated peptides, 10 μM, read-out: Inhibition (Percent Inhibition of huTF-initiated coagulation)
[4] = non-phospholipidated peptides, 10 μM

**Q.** What does the source list for “H-YWKSSSSGKKTAK-OH [p157-169, H--YWKSSSSGKKTAK--OH]”?
**A.** binding to factor VII/VIIa and inhibition of factor X activation (factor VII/VIIa [1]): bind to factor VII/VIIa and inhibit its ability to form a TF:VII/VIIa complex that can activate factor X; Optical Density (factor VII/VIIa [1]): 0.389 ± 0.035

**Q.** “p11-28: huTFh polypeptide; designation represents included residues of FIG. 1; sequence not printed (NLTWKSTNFKTILEWEPK; UniProt P13726 43-60, looked up, fragment)” was tested. Which “Optical Density” value (factor VII/VIIa [1]) did it give?
**A.** 0.687 ± 0.071

**Q.** Which “inhibition of huTF-initiated coagulation, dose-response (FIG. 12)” value (factor VII/VIIa [2]) does the source give for “H-LARVFSYPAGNVESTGSAGEPLYENSPEFTPYLC-OH [p72-104]” here?
**A.** no substantial inhibition

**Q.** And the inhibition at 10 µM (factor VII/VIIa [2]; [3])?
**A.** 25%

**Q.** What about the “Optical Density” value (factor VII/VIIa [1]) of the same substance?
**A.** 0.781 ± 0.047

**Q.** How did the “Inhibition (Percent Inhibition of huTF-initiated coagulation)” value (factor VII/VIIa [2]; phospholipidated peptides, 30 μM) turn out when “p50-71: phospholipidated huTFh polypeptide analog of Table 4; sequence not printed; probably p56-71 (FYTTDTECDLTDEIVKDVKQTY; also: phospholipidated (position not given here); UniProt P13726 82-103, looked up, fragment)” was run?
**A.** 73.3%

**Q.** With “H-ECDLTDEIVKDVKQTY-OH [p56-71, H--ECDLTDEIVKDVKQTY--OH]” as the substance, how does the inhibition at 10 µM (factor VII/VIIa [2]; [3]) read?
**A.** 25%

**Q.** How did the “binding to factor VII/VIIa and inhibition of factor X activation” value (factor VII/VIIa [1]) turn out when “H-RDVFGKDLIYTLYYWK-OH [p144-159, H--RDVFGKDLIYTLYYWK--OH]” was run?
**A.** bind to factor VII/VIIa and inhibit its ability to form a TF:VII/VIIa complex that can activate factor X

**Q.** What about the “Optical Density” value (factor VII/VIIa [1]) of the same substance?
**A.** 0.507 ± 0.053

**Q.** With “p1-18: huTFh polypeptide; designation represents included residues of FIG. 1; sequence not printed (SGTTNTVAAYNLTWKSTN; UniProt P13726 33-50, looked up, fragment)” as the substance, how does the “Optical Density” value (factor VII/VIIa [1]) read?
**A.** 1.007 ± 0.087

**Q.** “p161-190: huTFh polypeptide of Table 10; sequence not printed; probably p161-189 (SSSGKKTAKTNTNEFLIDVDKGENYCFSVQ; UniProt P13726 193-222, looked up, fragment)” was tested. Which “Optical Density” value (factor VII/VIIa [1]) did it give?
**A.** 0.600 ± 0.023

**Q.** “p26-40: phospholipidated huTFh polypeptide analog of Table 4; sequence not printed; probably p26-49 (EPKPVNQVYTVQIST; also: phospholipidated (position not given here); UniProt P13726 58-72, looked up, fragment)” was tested. Which “Inhibition (Percent Inhibition of huTF-initiated coagulation)” value (factor VII/VIIa [2]; phospholipidated peptides, 10 μM) did it give?
**A.** 83.0%

**Q.** With H-EPKPVNQVYTVQISTKSGDWKSKC-OH [p26-49] as the substance, how does the “binding to factor VII/VIIa and inhibition of factor X activation” value (factor VII/VIIa [1]) read?
**A.** bind to factor VII/VIIa and inhibit its ability to form a TF:VII/VIIa complex that can activate factor X

**Q.** And the “Optical Density” value (factor VII/VIIa [1])?
**A.** 0.437 ± 0.020

**Q.** For “p40-49: huTFh polypeptide analog of Table 4; sequence not printed; probably p41-49 (TKSGDWKSKC; UniProt P13726 72-81, looked up, fragment)”, which “Inhibition (Percent Inhibition of huTF-initiated coagulation)” value (factor VII/VIIa [2]; [4]) is on record?
**A.** 25.0%

**Q.** How did the “Optical Density” value (factor VII/VIIa [1]) turn out when “p244-263: huTFh polypeptide of Table 10; sequence not printed; probably p245-263 (KCRKAGVGQSWKENSPLNVS; UniProt P13726 276-295, looked up, fragment)” was run?
**A.** 0.619 ± 0.047

**Q.** With “p41-71: huTFh polypeptide analog of Table 4; sequence not printed; probably p40-71 (KSGDWKSKCFYTTDTECDLTDEIVKDVKQTY; UniProt P13726 73-103, looked up, fragment)” as the substance, how does the “Inhibition (Percent Inhibition of huTF-initiated coagulation)” value (factor VII/VIIa [2]; [4]) read?
**A.** 25.0%

**Q.** “H-SSSGKKTAKTNTNEFLIDVDKGENYCFSV-OH [p161-189]” was tested. Which “inhibition of huTF-initiated coagulation, dose-response (FIG. 12)” value (factor VII/VIIa [2]) did it give?
**A.** no substantial inhibition

**Q.** What about the inhibition at 10 µM (factor VII/VIIa [2]; [3]) of the same substance?
**A.** ≥ 30%

**Q.** What about the inhibition at 10 µM (factor VII/VIIa [2]; phospholipidated peptides, 10 μM, read-out: Inhibition (Percent Inhibition of huTF-initiated coagulation)) of the same substance?
**A.** 94%

**Q.** Which inhibition at 10 µM (factor VII/VIIa [2]; Example 17 study (FIG. 12), non-lipidated, 10 uM, read-out: inhibition of huTF-initiated coagulation) does the source give for “H-IYTLYYWKSSSSGKKTAK-OH [p152-169, H--IYTLYYWKSSSSGKKTAK--OH]” here?
**A.** 25%
